Legend:
Type in all cases: functional
MCF7 [1] = test: Cytotoxicity against human MCF7 cells assessed as cell viability at 10 uM after 48 hrs by MTT assay relative to control; conditions: MCF7, 48 h, read-out: Activity
MDA-MB-468 [2] = test: Cytotoxicity against gefitinib-resistant human MDA-MB-468 cells assessed as cell viability at 10 uM after 48 hrs by MTT assay relative to control; conditions: MDA-MB-468, 48 h, read-out: Activity
MDA-MB-468 [3] = test: Cytotoxicity against gefitinib-resistant human MDA-MB-468 cells assessed as cell viability at 30 uM after 48 hrs by MTT assay relative to control; conditions: MDA-MB-468, 48 h, read-out: Activity
MCF7 [4] = test: Cytotoxicity against human MCF7 cells assessed as reduction in cell viability after 48 hrs by MTT assay; conditions: MCF7, 48 h
MCF7 [5] = test: Cytotoxicity against human MCF7 cells assessed as cell viability at 30 uM after 48 hrs by MTT assay relative to control; conditions: MCF7, 48 h, read-out: Activity
MDA-MB-468 [6] = test: Cytotoxicity against gefitinib-resistant human MDA-MB-468 cells assessed as reduction in cell viability after 48 hrs by MTT assay; conditions: MDA-MB-468, 48 h
MCF7 [7] = test: Cytotoxicity against human MCF7 cells assessed as cell viability at 1 uM after 48 hrs by MTT assay relative to control; conditions: MCF7, 48 h, read-out: Activity
MCF7 [8] = test: Cytotoxicity against human MCF7 cells assessed as cell viability at 3 uM after 48 hrs by MTT assay relative to control; conditions: MCF7, 48 h, read-out: Activity

COC(=O)[C@@H]1Cn2c(cc3ccccc32)C(=O)N1Cc1ccccc1
viability at 10 µM (MCF7 [1]): 92.6%
viability at 10 µM (MDA-MB-468 [2]): 98.8%

COc1cc2ncnc(Nc3ccc(F)c(Cl)c3)c2cc1OCCCN1CCOCC1 [GEFITINIB]
viability at 10 µM (MCF7 [1]): 89.7%
viability at 30 µM (MDA-MB-468 [3]): 6.7%
viability at 10 µM (MDA-MB-468 [2]): 49.1%
GI50 (MCF7 [4]): 20.8 µM
viability at 30 µM (MCF7 [5]): 16.2%
GI50 (MDA-MB-468 [6]): 9.7 µM
viability at 1 µM (MCF7 [7]): 73.1%
viability at 3 µM (MCF7 [8]): 72.6%

Cc1ccc(CNC(=O)[C@@H]2Cn3c(cc4ccccc43)C(=O)N2)o1
viability at 30 µM (MDA-MB-468 [3]): 43%
viability at 30 µM (MCF7 [5]): 60.2%

O=C1N[C@H](C(=O)NCc2ccc(F)cc2)Cn2c1cc1ccccc12
viability at 30 µM (MDA-MB-468 [3]): 63.1%
viability at 30 µM (MCF7 [5]): 59.7%

Cc1ccc(CNC(=O)[C@@H]2Cn3c(cc4ccccc43)C(=O)N2)cc1
viability at 30 µM (MDA-MB-468 [3]): 61.5%
viability at 30 µM (MCF7 [5]): 68%

C=CCN1C(=O)c2cc3ccccc3n2C[C@H]1C(=O)NCc1ccco1
viability at 10 µM (MCF7 [1]): 98.2%
viability at 10 µM (MDA-MB-468 [2]): 58.4%
GI50 (MDA-MB-468 [6]): 18.5 µM

O=C1N[C@H](C(=O)Nc2ccccc2)Cn2c1cc1ccccc12
viability at 30 µM (MDA-MB-468 [3]): 74.5%
viability at 30 µM (MCF7 [5]): 87.3%

O=C1N[C@H](C(=O)NCc2ccc(C(F)(F)F)cc2)Cn2c1cc1ccccc12
viability at 30 µM (MDA-MB-468 [3]): 70.5%
viability at 30 µM (MCF7 [5]): 60.2%

O=C(NCc1ccccc1)[C@@H]1Cn2c(cc3ccccc32)C(=O)N1Cc1ccccc1
viability at 10 µM (MCF7 [1]): 47.1%
viability at 10 µM (MDA-MB-468 [2]): 28%
GI50 (MCF7 [4]): 9.6 µM
GI50 (MDA-MB-468 [6]): 7.6 µM

Nc1cccc(CNC(=O)[C@@H]2Cn3c(cc4ccccc43)C(=O)N2)c1
viability at 30 µM (MDA-MB-468 [3]): 67.7%
viability at 30 µM (MCF7 [5]): 70.5%

O=C1N[C@H](C(=O)NCc2cccc(C(F)(F)F)c2)Cn2c1cc1ccccc12
viability at 30 µM (MDA-MB-468 [3]): 62.4%
viability at 30 µM (MCF7 [5]): 59.1%

COC(=O)[C@H]1Cn2c(cc3ccccc32)C(=O)N1
viability at 30 µM (MDA-MB-468 [3]): 82.4%
viability at 30 µM (MCF7 [5]): 79.7%

Nc1ccc(CNC(=O)[C@@H]2Cn3c(cc4ccccc43)C(=O)N2)cc1
viability at 30 µM (MDA-MB-468 [3]): 65.4%
viability at 30 µM (MCF7 [5]): 76%

O=C1N[C@H](C(=O)NCCc2ccc(O)cc2)Cn2c1cc1ccccc12
viability at 30 µM (MDA-MB-468 [3]): 63.1%
viability at 30 µM (MCF7 [5]): 85.5%

CCCCCCNC(=O)[C@@H]1Cn2c(cc3ccccc32)C(=O)N1
viability at 30 µM (MDA-MB-468 [3]): 61.8%
viability at 30 µM (MCF7 [5]): 71.2%

O=C1N[C@H](C(=O)NCc2ccc(Cl)cc2)Cn2c1cc1ccccc12
viability at 30 µM (MDA-MB-468 [3]): 60.3%
viability at 30 µM (MCF7 [5]): 66.1%

COc1cccc(CNC(=O)[C@@H]2Cn3c(cc4ccccc43)C(=O)N2)c1
viability at 30 µM (MDA-MB-468 [3]): 70.5%
viability at 30 µM (MCF7 [5]): 68.6%

O=C1N[C@H](C(=O)NCc2cccs2)Cn2c1cc1ccccc12
viability at 30 µM (MDA-MB-468 [3]): 39.2%
viability at 30 µM (MCF7 [5]): 61.7%

CN1C(=O)c2cc3ccccc3n2C[C@H]1C(=O)NCc1ccco1
viability at 10 µM (MCF7 [1]): 54.1%
viability at 10 µM (MDA-MB-468 [2]): 56.1%
GI50 (MDA-MB-468 [6]): 15 µM

Reference: ChEMBL document CHEMBL4041531, “Design, synthesis, and biological evaluation of novel 1-oxo-1,2,3,4-tetrahydropyrazino[1,2-a]indole-3-carboxamide analogs in MCF-7 and MDA-MB-468 breast cancer cell lines” (2017)
